Laboratory results from patent US10493061B2, “Compositions and methods comprising 2-(acylamino)imidazoles” (priority 2014, dated 2019).
Entries after “also recorded” stand apart in the source; their conditions may differ.

Key:
MCF-7s = test: Cell viability of MCF-7 cells treated with ZNA and ZNA analogues; format: cell-based, human; settings: Homo sapiens, MCF7S; 24 h treatment
Text: Of the analogues evaluated, those with more electron-donating groups at C5 or on the N^2-carbonyl seem to improve activity.

[1] = system: untransformed MCF-10A cells; test: Clonogenic cell survival assay; settings: 24 hours ZNA, then three weeks of growth, crystal violet
Protocol: Clonogenic cell survival assays were conducted as described in Franken NAP, Rodermond H M, Stap J, Haveman J, van Bree C.
Further experiments were also conducted to assess the effects of short-term ZNA treatment on long-term cell survival and proliferation. Cells were treated for 24 hours with ZNA then cultured in the absence of the small molecule; following three weeks of growth, colonies were stained with crystal violet and quantified (FIG. 1D).

[2] = system: transplanted PyMT mammary tumors; test: Mouse mammary tumor model (transplanted PyMT tumors), Kaplan-Meier survival; format: in vivo
Protocol: In vivo ZNA studies: Mouse studies were conducted with the approval of an institutional animal care and use committee. FVB/NJ mice were obtained from The Jackson Laboratory (Bar Harbor, Me., USA). In preparation for the in vivo study, EF1α-PyMT mouse mammary tumors were generated in donor mice and the tumors resected and prepared as single cells as described previously by Smith et al. (6). These cells were suspended in Matrigel (BD Biosciences) and injected (50,000 cells per 10 μL injection) into the uncleared mammary fat pad of 3-week old female recipient FVB/NJ mice. Twenty-one days following the transplant, the mice were randomized, and drug treatment was initiated; the mice were treated once a day for 21 days, and a tumor diameter ≥2 cm was established as an endpoint. ZNA (100 mg/kg) or the matched vehicle control was administered to each mouse via a 200-μL intraperitoneal injection of ZNA diluted into DMSO, then diluted into phosphate buffered saline to a final DMSO concentration of 5%. ZnSO4 was administered continuously for the 21-day treatment period to the appropriate groups via drinking water (25 mM ZnSO4.7H2O).
Statistics: The student's t-test (unpaired) was used to assess statistical significance and a p≤0.05 was considered statistically significant. Statistical significance between Kaplan-Meier survival curves was measured by the Mantel-Cox test using Prism 6.0 (GraphPad Software). The following P-values were used to annotate statistical significance: p≤0.05=*; p≤0.01=**; p≤0.001=***.
Next, the efficacy of the compound was tested in an in vivo tumor model. […] Mice were treated once a day for 21 days, and four treatment conditions were assessed: ZNA (100 mg/kg administered via intraperitoneal), ZnSO4 (25 mM administered continuously for the duration of treatment via drinking water), a combination of ZNA and ZnSO4, and a control group (PBS administered via intraperitoneal injection); a tumor diameter greater than 2 cm was established as an endpoint.

MCF-7 cells = test: Intracellular Zn^2+ by FluoZin-3 staining and flow cytometry; format: cell-based, human
Protocol: Measurement of intracellular Zn^2+ by FluoZin-3 staining: Cells were seeded in 6-well plates at a density such that at the time of analysis, wells would be 70-80% confluent. Following the completion of treatment, the drug-containing media was removed and replaced with Hank's Balanced Salt Solution (HBSS, Life Technologies) containing 2.5 μM FluoZin-3. The cells were incubated with the indicator for 30 minutes at room temperature in the dark. After staining, the cells were trypsinized, resuspended in HBSS containing 2% FBS, and relative mean fluorescence was measured by flow cytometry (FACscan, BD Biosciences, San Jose, Calif., USA).
In order to determine whether the transcriptional changes in metal trafficking genes were functionally relevant to ZNA's mechanism of action, intracellular Zn^2+ was quantified using the fluorescent indicator FluoZin-3 followed by flow cytometry analysis (FIG. 1G).
Further probing the ability of ZNA to stimulate increases in intracellular Zn^2+, MCF-10A and MCF-7 cells were treated for three hours with 30 μM ZNA (both with and without exogenous ZnSO4) in zinc-free media; intracellular zinc was then quantified by FluoZin-3 staining (FIG. 3B).

[3] = system: MCF-10A normal mammary epithelial cell line; test: Cell death by propidium iodide staining and flow cytometry; format: cell-based, human
Protocol: Measurement of cell death by propidium iodide staining: Cells were cultured to 80% confluence in 6-well plates and the growth media was then replaced with low serum (2% FBS) drug-containing media. Each condition was assessed in triplicate. Following the completion of treatment, the media and floating cells were collected and combined with the trypsinized adherent cells. The cells were washed with 2% FBS/HBSS, and resuspended in a propidium iodide solution (Cell Signaling) for analysis by flow cytometry. The percentage of propidium iodide positive cells for each treatment condition were averaged and normalized to the vehicle-treated control. The normalized data were plotted as the average±standard error of three replicates.
In order to validate the transition metal screen with a second cell viability assay, propidium iodide uptake was measured in four cell lines by flow cytometry following a 24-hour treatment with either 30 μM ZNA alone or in combination with 30 µM CuSO4 or 30 μM ZnSO4 (FIG. 2B).
Since autophagy can stimulate both pro-death and pro-survival pathways, experiments were next conducted to assess how autophagic inhibitors impacted ZNA's cell death profile. […] As such, cells were treated with ZNA in combination with chloroquine, an inhibitor of autophagosome function, and cell death was assessed by propidium iodide stain following 72 hours of treatment. […]

## COc1ccc(-c2c(Cc3ccccc3)[nH]/c(=N\C(=O)c3ccccc3F)n2C)cc1 [ZNA, (E)-N-(4-benzyl-5-(4-methoxyphenyl)-1-methyl-1H-imidazol-2(3H)-ylidene)-2-fluorobenzamide]
MCF-7s
  IC50: 8.8 µM
[1]
  long-term proliferative potential (colonies): greatly attenuated
[2]; ZNA 100 mg/kg ip once a day for 21 days, vs control-treated group
  survival: statistically significant survival advantage
[2]; ZNA 100 mg/kg ip once a day with 25 mM ZnSO4 in drinking water, 21 days, vs ZnSO4-only group
  survival: statistically significant survival advantage
[2]; mice, ZNA 100 mg/kg alone or with ZnSO4
  general toxicity, adverse reactions, body weight: no general toxicity, adverse reactions, or decreases in body weight were observed; also recorded: without detrimental effects on mouse weight and health
MCF-7 cells; 30 μM ZNA alone, 48 hours
  increase in FluoZin-3 fluorescence: 13 fold
MCF-7 cells; 30 μM ZNA alone, three hours, zinc-free media
  FluoZin-3 fluorescence: no significant increase in FluoZin-3 fluorescence
MCF-7 cells; ZNA and ZnSO4, three hours, zinc-free media, compared to ZnSO4 alone
  increase in fluorescence (FluoZin-3): 4.3 fold
[3]; 30 μM ZNA with 30 μM ZnSO4, 24 hours
  cell death (propidium iodide uptake): unaffected
[3]; ZNA with chloroquine, 72 hours
  ZNA-induced cell death (propidium iodide): did not significantly affect cell death
